Target: T1, human TLR9 (Homo sapiens, UniProt Q9NR96)
T1 sequence (Q9NR96 26-1032): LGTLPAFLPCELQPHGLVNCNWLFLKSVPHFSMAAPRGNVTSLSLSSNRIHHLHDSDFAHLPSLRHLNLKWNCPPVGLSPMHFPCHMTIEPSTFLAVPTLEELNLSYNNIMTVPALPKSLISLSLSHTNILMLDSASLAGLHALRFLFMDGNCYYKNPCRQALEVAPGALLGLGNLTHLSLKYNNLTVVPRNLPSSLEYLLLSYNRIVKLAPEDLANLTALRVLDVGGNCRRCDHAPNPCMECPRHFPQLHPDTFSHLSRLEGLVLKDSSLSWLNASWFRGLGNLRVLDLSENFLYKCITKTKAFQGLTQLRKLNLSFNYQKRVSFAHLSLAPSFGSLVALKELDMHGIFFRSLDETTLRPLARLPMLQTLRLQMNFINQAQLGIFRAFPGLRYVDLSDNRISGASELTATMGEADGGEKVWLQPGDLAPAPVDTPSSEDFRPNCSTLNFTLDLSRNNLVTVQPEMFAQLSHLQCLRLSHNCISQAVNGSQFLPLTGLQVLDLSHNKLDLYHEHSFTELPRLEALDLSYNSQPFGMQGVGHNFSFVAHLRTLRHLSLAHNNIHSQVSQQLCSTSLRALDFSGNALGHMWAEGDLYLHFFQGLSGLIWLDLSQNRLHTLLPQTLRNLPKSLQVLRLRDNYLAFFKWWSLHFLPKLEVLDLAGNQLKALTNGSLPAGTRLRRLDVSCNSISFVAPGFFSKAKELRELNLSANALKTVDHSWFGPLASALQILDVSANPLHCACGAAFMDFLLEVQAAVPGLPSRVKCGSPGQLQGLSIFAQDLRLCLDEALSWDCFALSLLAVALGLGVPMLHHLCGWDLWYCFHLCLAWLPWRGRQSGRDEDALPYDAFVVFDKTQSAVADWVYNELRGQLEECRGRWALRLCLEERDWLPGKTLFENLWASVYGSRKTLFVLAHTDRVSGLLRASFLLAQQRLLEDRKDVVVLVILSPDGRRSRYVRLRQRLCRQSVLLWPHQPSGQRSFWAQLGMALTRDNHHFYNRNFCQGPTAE
Assay: HEK293-Blue-hTLR-9 cells assay
Assay type: cell-based
Details: HEK293-Blue-hTLR9 cells, ODN2006 stimulation, 20 hrs, SEAP reporter; read-out: HEK/hTLR9 IC50
Summary of the method: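 Antagonist mode in HEK293-Blue hTLR9 reporter cells (SEAP under NF-κB/AP-1 sites), stimulated with ODN2006 added from a 20 uM solution. Serially diluted compound (1% DMSO final) was incubated 20 hrs at 37° C. Supernatant SEAP was developed with QUANTI-Blue for 2 h at 37° C and read at 620˜655 nm.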

Row | SMILES | IC50 [nM]
1 | COC12CNCC1CN(c1ccc3c(c1)CN1[C@H](C)CN(c4ccc(C#N)c5ncccc45)C[C@H]31)C2 (stereo partly drawn) [Example 41, 5-[(4R,10bS)-8-(3a-methoxy-1,2,3,4,6,6a-hexahydropyrrolo[3,4-c]pyrrol-5-yl)-4-methyl-3,4,6,10b-tetrahydro-1H-pyrazino[2,1-a]isoindol-2-yl]quinoline-8-carbonitrile] | < 31.8
2 | C[C@@H]1CN(c2ccc(C#N)c3ncccc23)C[C@@H]2c3ccc(N4C[C@H](N)[C@@H](O)C4)cc3CN12 [Example 40A, 5-[(4R,10bS)-8-[(3S,4S)-3-amino-4-hydroxy-pyrrolidin-1-yl]-4-methyl-3,4,6,10b-tetrahydro-1H-pyrazino[2,1-a]isoindol-2-yl]quinoline-8-carbonitrile] | 59.5
3 | C[C@@H]1CN(c2ccc(C#N)c3ncccc23)C[C@@H]2c3ccc(N4CC5(CNC5)C4)cc3CN12 [Example 36, 5-[(4R,10bS)-8-(2,6-diazaspiro[3.3]heptan-2-yl)-4-methyl-3,4,6,10b-tetrahydro-1H-pyrazino[2,1-a]isoindol-2-yl]quinoline-8-carbonitrile] | 100
4 | C[C@@H]1CN(c2ccc(C#N)n3nccc23)C[C@@H]2c3ccc(N4CC[C@@H](N)C4)cc3CN12 [Example 96, 4-[(4R,10bS)-8-[(3R)-3-aminopyrrolidin-1-yl]-4-methyl-3,4,6,10b-tetrahydro-1H-pyrazino[2,1-a]isoindol-2-yl]pyrazolo[1,5-a]pyridine-7-carbonitrile] | 193
5 | C[C@@H]1CN(c2ccc(C#N)c3ncccc23)C[C@@H]2c3ccc(N4C[C@@H](N)[C@](C)(O)C4)cc3CN12 [Example 45, 5-[(4R,10bS)-4-methyl-8-[trans-(3R,4R)-4-amino-3-hydroxy-3-methyl-pyrrolidin-1-yl]-3,4,6,10b-tetrahydro-1H-pyrazino[2,1-a]isoindol-2-yl]quinoline-8-carbonitrile] | 78.5
6 | C[C@@H]1CN(c2ccc(C#N)c3ncccc23)C[C@@H]2c3ccc(N4C[C@@H](N)[C@H](F)C4)cc3CN12 [Example 48, 5-[(4R,10bS)-8-[(3R,4R)-3-amino-4-fluoro-pyrrolidin-1-yl]-4-methyl-3,4,6,10b-tetrahydro-1H-pyrazino[2,1-a]isoindol-2-yl]quinoline-8-carbonitrile] | 193
7 | C[C@@H]1CN(c2ccc(C#N)c3ncccc23)C[C@@H]2c3ccc(N4CCOCC(N)C4)cc3CN12 (stereo partly drawn) [Example 54, 5-[(4R,10bS)-8-(6-amino-1,4-oxazepan-4-yl)-4-methyl-3,4,6,10b-tetrahydro-1H-pyrazino[2,1-a]isoindol-2-yl]quinoline-8-carbonitrile] | 63.6
8 | C[C@@H]1CN(c2ccc(C#N)c3ncccc23)CC2c3ccc(N4C[C@H](N)[C@@H](O)C4)cc3CN21 (relative stereo) [Example 21, 5-[(4R,10bS)-8-[trans-3-amino-4-hydroxy-pyrrolidin-1-yl]-4-methyl-3,4,6,10b-tetrahydro-1H-pyrazino[2,1-a]isoindol-2-yl]quinoline-8-carbonitrile] | 56.1
9 | C[C@@H]1CN(c2ccc(C#N)c3ncccc23)C[C@@H]2c3ccc(N4CCNC[C@@H]4CO)cc3CN12 [Example 10, 5-[(4R,10bS)-8-[(2R)-2-(hydroxymethyl)piperazin-1-yl]-4-methyl-3,4,6,10b-tetrahydro-1H-pyrazino[2,1-a]isoindol-2-yl]quinoline-8-carbonitrile] | 92.5
10 | C[C@@H]1CN(c2ccc(C#N)c3ncccc23)C[C@@H]2c3ccc(N[C@H]4CNC[C@@H]4F)cc3CN12 [Example 31, 5-[(4R,10bS)-8-[[(3S,4S)-4-fluoropyrrolidin-3-yl]amino]-4-methyl-3,4,6,10b-tetrahydro-1H-pyrazino[2,1-a]isoindol-2-yl]quinoline-8-carbonitrile] | 93.7
11 | C[C@@H]1CN(c2ccc(C#N)c3ncccc23)C[C@@H]2c3ccc(NC4CNC4)cc3CN12 [Example 28, 5-[(4R,10S)-8-(azetidin-3-ylamino)-4-methyl-3,4,6,10b-tetrahydro-1H-pyrazino[2,1-a]isoindol-2-yl]quinoline-8-carbonitrile] | 83.4
12 | N#Cc1ccc(N2CCN3Cc4cc(N5CCNCC5)ccc4C3C2)c2scnc12 (centres unmarked) [Example 4, 7-(8-piperazin-1-yl-3,4,6,10b-tetrahydro-1H-pyrazino[2,1-a]isoindol-2-yl)-1,3-benzothiazole-4-carbonitrile] | 101
13 | C[C@@H]1CN(c2ccc(C#N)c3ncccc23)C[C@@H]2c3ccc(N4CC5(CCN5)C4)cc3CN12 [Example 37, 5-[(4R,10bS)-8-(1,6-diazaspiro[3.3]heptan-6-yl)-4-methyl-3,4,6,10b-tetrahydro-1H-pyrazino[2,1-a]isoindol-2-yl]quinoline-8-carbonitrile] | 103
14 | CN[C@H]1CN(c2ccc3c(c2)CN2[C@H](C)CN(c4ccc(C#N)c5ncccc45)C[C@H]32)C[C@@H]1O [Example 42, 5-[(4R,10bS)-8-[(3S,4S)-3-hydroxy-4-(methylamino)pyrrolidin-1-yl]-4-methyl-3,4,6,10b-tetrahydro-1H-pyrazino[2,1-a]isoindol-2-yl]quinoline-8-carbonitrile] | 65.4

Continued by falling IC50, values first:

Row | IC50 [nM] | SMILES
15 | 156 | C[C@@H]1CN(c2ccc(C#N)c3ncccc23)C[C@@H]2c3ccc(N4CCNC[C@@](C)(O)C4)cc3CN12 [Example 55B, 5-[(4R,10bS)-8-[(6R)-6-hydroxy-6-methyl-1,4-diazepan-1-yl]-4-methyl-3,4,6,10b-tetrahydro-1H-pyrazino[2,1-a]isoindol-2-yl]quinoline-8-carbonitrile]
16 | 111 | C[C@@H]1CN(c2ccc(C#N)c3ncccc23)C[C@@H]2c3ccc(N4CC5(CNCCO5)C4)cc3CN12 [Example 35, 5-[(4R,10bS)-4-methyl-8-(5-oxa-2,8-diazaspiro[3.5]nonan-2-yl)-3,4,6,10b-tetrahydro-1H-pyrazino[2,1-a]isoindol-2-yl]quinoline-8-carbonitrile]
17 | 104 | C[C@@H]1CN(c2ccc(C#N)c3ncccc23)C[C@@H]2c3ccc(N4CC(N)C4)cc3CN12 [Example 22, 5-[(4R,10bS)-8-(3-aminoazetidin-1-yl)-4-methyl-3,4,6,10b-tetrahydro-1H-pyrazino[2,1-a]isoindol-2-yl]quinoline-8-carbonitrile]
18 | 100 | C[C@@H]1CN(c2ccc(C#N)c3ncccc23)C[C@@H]2c3ccc(N[C@@H]4CNC[C@H]4F)cc3CN12 [Example 33, 5-[(4R,10bS)-8-[[(3R,4R)-4-fluoropyrrolidin-3-yl]amino]-4-methyl-3,4,6,10b-tetrahydro-1H-pyrazino[2,1-a]isoindol-2-yl]quinoline-8-carbonitrile]
19 | 71.2 | C[C@@H]1CN(c2ccc(C#N)c3ncccc23)C[C@@H]2c3ccc(N4CCN[C@H](CO)C4)cc3CN12 [Example 12, 5-[(4R,10bS)-8-[(3S)-3-(hydroxymethyl)piperazin-1-yl]-4-methyl-3,4,6,10b-tetrahydro-1H-pyrazino[2,1-a]isoindol-2-yl]quinoline-8-carbonitrile]
20 | 68 | C[C@@H]1CN(c2ccc(C#N)c3ncccc23)C[C@@H]2c3ccc(N4CCNC[C@@H](O)C4)cc3CN12 [Example 53B, 5-[(4R,10bS)-8-[(6R)-6-hydroxy-1,4-diazepan-1-yl]-4-methyl-3,4,6,10b-tetrahydro-1H-pyrazino[2,1-a]isoindol-2-yl]quinoline-8-carbonitrile]
21 | 55.8 | C[C@@H]1CN(c2ccc(C#N)c3ncccc23)C[C@@H]2c3ccc(NCCN(C)C)cc3CN12 [Example 26, 5-[(4R,10bS)-8-[2-(dimethylamino)ethylamino]-4-methyl-3,4,6,10b-tetrahydro-1H-pyrazino[2,1-a]isoindol-2-yl]quinoline-8-carbonitrile]
22 | 53 | C[C@@H]1CN(c2ccc(C#N)n3nccc23)C[C@@H]2c3ccc(N4C[C@@H](N)[C@H](O)C4)cc3CN12 [Example 110, 4-[(4R,10bS)-8-[(3R,4R)-3-amino-4-hydroxy-pyrrolidin-1-yl]-4-methyl-3,4,6,10b-tetrahydro-1H-pyrazino[2,1-a]isoindol-2-yl]pyrazolo[1,5-a]pyridine-7-carbonitrile]
23 | 43.3 | C[C@@H]1CN(c2ccc(C#N)c3ncccc23)C[C@@H]2c3ccc(C4CNC4)cc3CN12 [Example 29, 5-[(4R,10bS)-8-(azetidin-3-yl)-4-methyl-3,4,6,10b-tetrahydro-1H-pyrazino[2,1-a]isoindol-2-yl]quinoline-8-carbonitrile]

Reference: US12157746B2, “Tetrahydro-1H-pyrazino[2,1-a]isoindolylquinoline compounds for the treatment of autoimmune disease” (F. HOFFMANN-LA ROCHE AG, priority 2018, dated 2024)
